Results published in ChEMBL document CHEMBL1649248, “Two distinct major facilitator superfamily drug efflux pumps mediate chloramphenicol resistance in Streptomyces coelicolor” (2009).
Values after ≈ are worked out from the molar mass of the structure shown. Peptide text beside a SMILES is read from it. * marks the point of attachment. βNA = c1ccc2cc(N*)ccc2c1

What was measured:
Streptomyces coelicolor [1] = test: Antimicrobial activity against apramycin-resistant cmlR1 null mutant Streptomyces coelicolor B754 after 48 hrs relative to wild type; type: functional
Streptomyces coelicolor [2] = test: Antimicrobial activity against apramycin-resistant cmlR2 null mutant Streptomyces coelicolor B756 after 48 hrs relative to wild type; type: functional
Streptomyces coelicolor [3] = test: Inhibition of MFS efflux pump in Streptomyces coelicolor assessed as reduction in chloramphenicol MIC at 10 ug/ml after 48 hrs relative to control
Streptomyces coelicolor [4] = test: Inhibition of MFS efflux pump in Streptomyces coelicolor assessed as reduction in chloramphenicol MIC at 25 ug/ml after 48 hrs relative to control
Streptomyces coelicolor [5] = test: Inhibition of MFS efflux pump in Streptomyces coelicolor assessed as reduction in chloramphenicol MIC at 50 ug/ml after 48 hrs relative to control
Streptomyces coelicolor [6] = test: Inhibition of MFS efflux pump in Streptomyces coelicolor assessed as reduction in chloramphenicol MIC at 75 ug/ml after 48 hrs relative to control
Streptomyces coelicolor [7] = test: Inhibition of MFS efflux pump in apramycin-resistant cmlR1 null mutant Streptomyces coelicolor assessed as reduction in chloramphenicol MIC at 10 ug/ml after 48 hrs relative to control
Streptomyces coelicolor [8] = test: Inhibition of MFS efflux pump in apramycin-resistant cmlR1 null mutant Streptomyces coelicolor assessed as reduction in chloramphenicol MIC at 25 ug/ml after 48 hrs relative to control
Streptomyces coelicolor [9] = test: Inhibition of MFS efflux pump in apramycin-resistant cmlR1 null mutant Streptomyces coelicolor assessed as reduction in chloramphenicol MIC at 50 ug/ml after 48 hrs relative to control
Streptomyces coelicolor [10] = test: Inhibition of MFS efflux pump in apramycin-resistant cmlR1 null mutant Streptomyces coelicolor assessed as reduction in chloramphenicol MIC at 75 ug/ml after 48 hrs relative to control
Streptomyces coelicolor [11] = test: Inhibition of MFS efflux pump in apramycin-resistant cmlR2 null mutant Streptomyces coelicolor assessed as reduction in chloramphenicol MIC at 10 ug/ml after 48 hrs relative to control
Streptomyces coelicolor [12] = test: Inhibition of MFS efflux pump in apramycin-resistant cmlR2 null mutant Streptomyces coelicolor assessed as reduction in chloramphenicol MIC at 25 ug/ml after 48 hrs relative to control
Streptomyces coelicolor [13] = test: Inhibition of MFS efflux pump in apramycin-resistant cmlR2 null mutant Streptomyces coelicolor assessed as reduction in chloramphenicol MIC at 50 ug/ml after 48 hrs relative to control
Streptomyces coelicolor [14] = test: Inhibition of MFS efflux pump in apramycin-resistant cmlR2 null mutant Streptomyces coelicolor assessed as reduction in chloramphenicol MIC at 75 ug/ml after 48 hrs relative to control
Streptomyces coelicolor [15] = test: Antimicrobial activity against Streptomyces coelicolor after 48 hrs; type: functional
Streptomyces coelicolor [16] = test: Antimicrobial activity against Streptomyces coelicolor B758 overexpressing cmlR1 after 48 hrs relative to wild type; type: functional
Streptomyces coelicolor [17] = test: Antimicrobial activity against Streptomyces coelicolor B759 overexpressing cmlR2 after 48 hrs relative to wild type; type: functional

In the case of CS(=O)(=O)c1ccc([C@@H](O)[C@@H](CF)NC(=O)C(Cl)Cl)cc1 [FLORFENICOL], the “fold change (FC)” value (Streptomyces coelicolor [1]) is reported as 1.8 and the “fold change (FC)” value (Streptomyces coelicolor [2]) is reported as 3.

In the case of COC(=O)[C@H]1[C@H]2C[C@@H]3c4[nH]c5cc(OC)ccc5c4CCN3C[C@H]2C[C@@H](OC(=O)c2cc(OC)c(OC)c(OC)c2)[C@@H]1OC, the fold change (FC) (Streptomyces coelicolor [3]) is reported as 1.3, the fold change (FC) (Streptomyces coelicolor [4]) is reported as 2.7 and the fold change (FC) (Streptomyces coelicolor [5]) is reported as 4. The fold change (FC) (Streptomyces coelicolor [6]) was 4, the fold change (FC) (Streptomyces coelicolor [7]) was 2.5 and the fold change (FC) (Streptomyces coelicolor [8]) was 2.5. For the same molecule, the fold change (FC) (Streptomyces coelicolor [9]) was 3.3, the fold change (FC) (Streptomyces coelicolor [10]) was 3.3 and the fold change (FC) (Streptomyces coelicolor [11]) was 1.3. For the same molecule, the fold change (FC) (Streptomyces coelicolor [12]) was 2, the fold change (FC) (Streptomyces coelicolor [13]) was 2 and the fold change (FC) (Streptomyces coelicolor [14]) was 2.

Molecule N=C(N)NCCC[C@H](NC(=O)[C@@H](N)Cc1ccccc1)C(=O)Nc1ccc2ccccc2c1 [PABETAN] (H-Phe-Arg-βNA) has a fold change (FC) (Streptomyces coelicolor [3]) of 2.7, a fold change (FC) (Streptomyces coelicolor [4]) of 3.2 and a fold change (FC) (Streptomyces coelicolor [5]) of 4. The fold change (FC) (Streptomyces coelicolor [6]) was 8, the fold change (FC) (Streptomyces coelicolor [7]) was 2.5 and the fold change (FC) (Streptomyces coelicolor [8]) was 3.3. For the same molecule, the fold change (FC) (Streptomyces coelicolor [9]) was 3.3, the fold change (FC) (Streptomyces coelicolor [10]) was 5 and the fold change (FC) (Streptomyces coelicolor [11]) was 1.7. For the same molecule, the fold change (FC) (Streptomyces coelicolor [12]) was 1.7, the fold change (FC) (Streptomyces coelicolor [13]) was 1.7 and the fold change (FC) (Streptomyces coelicolor [14]) was 1.7. For the same molecule, the MIC (Streptomyces coelicolor [15]) was 200 µg/mL (≈ 448 µM).

With CS(=O)(=O)c1ccc([C@@H](O)[C@@H](CO)NC(=O)C(Cl)Cl)cc1 [THIAMPHENICOL] the “fold change (FC)” value (Streptomyces coelicolor [2]) was greater than 10.

In the case of O=C(N[C@H](CO)[C@H](O)c1ccc([N+](=O)[O-])cc1)C(Cl)Cl [CHLORAMPHENICOL], the “fold change (FC)” value (Streptomyces coelicolor [1]) is reported as 1.6, the “fold change (FC)” value (Streptomyces coelicolor [2]) is reported as 16 and the “fold change (FC)” value (Streptomyces coelicolor [16]) is reported as 2. For the same molecule, the “fold change (FC)” value (Streptomyces coelicolor [17]) was 4.
